Results published in patent US20250352494A1, “TRANSDERMAL DELIVERY DEVICE FOR PEPTIDE DELIVERY AND METHODS OF USE” (PassPort Technologies, Inc., priority 2022, published 2025).
Ends that are not written are not given here.

Assays:
in vivo [1] = conditions: for bioavailability: 2 mg; for PK Profile: Table 40
Method: (§1) Animal Studies in Rats. […] In vivo PK studies were performed in CD rats (Charles River Laboratories) according to IACUC-approved Animal Protocols. Each dosing formulation was prepared prior to the experiments. The patch was manufactured according to dry patch manufacturing procedure. The animals for transdermal applications were shaved 1 day before the dosing date. The transdermal microporation was applied using the Applicator and Porator. Then, the patch was placed to cover the porated area for 1 day or a designated duration. After the last blood sampling, the patch was collected, and the application site was wiped by paper or cotton to recover the remaining drug on the skin. The blood samples were collected from the tail vein and transferred into K2-EDTA tube at the designated sampling time. The samples were centrifuged at 4° C., and then plasma samples were obtained. All samples were stored at −80° C. freezer until bioassay.
The plasma samples were stayed at room temperature for 30 minutes. The plasma (50 μL) was transferred into a 2 mL Eppendorf tube (Protein LoBind), then add 50 μL of Acetonitrile/DMSO (4:1, v/v), and vortex the tube for a couple of seconds. The samples were centrifuged for 15 minutes at 3700 rpm, 4° C. The 150 μL of mobile phase A (0.1% formic acid in water) were put into a new tube, then 50 μL of the supernatant were transferred into the tube and the samples were vortexed for 5 minutes. The supernatant was pulled out and the solution was filtered through a 0.20 μm PTFE membrane into an autosampler vial (LCMSMS).

[2] = p3-Alcβ9-19 in mouse plasma (sELISA) after transdermal microporation patch or subcutaneous injection; assay type: in vivo, wild-type mice; conditions: mice plasma
Excerpt: (§2) Animal Studies in Mice. […] The hair was removed prior to the experiments. […] Exp. 21 (2008).
sELISA method for p3-Alcβ9-19 Analysis.

[3] = rats; reducing sugar formulation (Table 22); 24 hours after application; without microporation
Method: as §1, with “The transdermal microporation was applied using the Applicator and Porator.” left out

in vivo [4] = experiment: in vivo
Excerpt: as §2
IgG was purified with antigen-coupled resin and conjugated to biotin. Horseradish peroxidase-conjugated streptavidine was from Amersham/GE Healthcare (Cat #RPN1051, Little Chalfont, UK), and the tetramethylbenzidine (TMB) microwell peroxidase substrate system was from SeraCare Life Sciences Inc. (Cat #5120-0075, Milford, MA, USA). The mice were anesthetized by using 1% isoflurane, and CSF was collected from the cisterna magna in mice as described above, and then mice were sacrificed.
Dis. (2014) 39, 861-870, p3-Alcβ37- and p3-Alcβ40-specific sELISA systems, described in Hata et al “Decrease in p3-Alcβ37 and p3-Alcβ40, products of Alcadeinβ generated by γ-secretase cleavages, in aged monkeys and patients with Alzheimer's disease” Alzheimers Dement TRCI (2019) 5, 740-750.
The next day, the non-binding antibody was removed with wash buffer (0.05% Tween-20 in PBS). The plasma and CSF were diluted 200-fold and 20-fold with EIA buffer (1% BSA, 0.05% Tween-20), respectively. The sample solution was added to 96 well plates and stayed overnight at 4° C. The next day, after washing with wash buffer, purified biotinylated IgG dissolved in PBS was added to […] in each well, and the mixture was kept overnight at 4° C. The next day, the unreacted antibody was washed with wash buffer, streptavidin-HRP (1/5000 in PBS) was added, and the reaction was carried out at 4° C. for 6 to 8 hours. After washing with Wash buffer, TMB color-developing substrate was added, and the mixture was reacted at room temperature for 30 minutes under light-protection. The color development was stopped by adding 1 N H2SO4, and the samples were measured by a plate reader at 450 nm.

[5] = mouse, sc, 30 ug, subcutaneous injection 30 μg
[6] = mouse, cerebrospinal fluid, sc, 30 ug

HRGHQPPPEMA [p3-Alcβ9-19]
bioavailability (in vivo [1]; CD, rat, plasma, iv): 100% | bioavailability (in vivo [1]; CD, rat, plasma, oral): 0% | bioavailability (in vivo [1]; CD, rat, plasma, other: nasal): 0% | bioavailability (in vivo [1]; CD, rat, plasma, other: passive transdermal): 0% | Tmax (in vivo [1]; CD, rat, plasma, other: transdermal microporation): ~60 min | bioavailability (in vivo [1]; CD, rat, plasma, subcutaneous): 120 to 275% | aBA (absolute bioavailability) vs IV (2 mg/body) (in vivo [1]; Table 33, optimized formulations for immediate delivery, rats, 400 density, 4 mJ/filament): about 2000% | PK Profile (in vivo [1]; Intravenous injection): Bolus absorption | PK Profile (in vivo [1]; Nasal): No absorption | PK Profile (in vivo [1]; Oral): No absorption | PK Profile (in vivo [1]; Passive Transdermal): No absorption | PK Profile (in vivo [1]; Subcutaneous injection): Bolus absorption | Absorption (in vivo [1]; rats, 5 mg/head, oral, nasal, or passive transdermal routes): No absorption | Time by which blood concentrations disappeared (in vivo [1]; rats, SC injection): ≤ 1 h | Relationship between p3-Alcβ9-19 dose and AUC, FIG. 16 (in vivo [1]; rats, immediate delivery, up to 50 mg of p3-Alcβ9-19 (tested dose)): liner dose-dependency | PK profiles (in vivo [1]; rats, intravenous (IV) and subcutaneous (SC) injections): rapid absorption and quick elimination | AUC and Cmax versus p3-Alcβ9-19 dose, FIG. 19A/19B (in vivo [1]; rats, optimized patch): increased p3-Alcβ9-19 dose-dependently | Relationship between p3-Alcβ9-19 dose and AUC, FIG. 17 (in vivo [1]; rats, sustained delivery, up to 25 mg of p3-Alcβ9-19 (tested dose)): liner dose-dependency | BA (relative bioavailability) vs SC (30 μg/body) ([2]; subcutaneous injection 30 μg (reference)): 100% | Cmax [2, 5]: 0.0255 ± 0.0125 µg/mL | Tmax [2, 5]: 18.8 min | AUC(0-t) ([2]; mouse, sc, 30 ug, subcutaneous injection 30 μg, read-out: AUC0-360 (converted)): 9.84 ng·h/mL | p3-Alcβ9-19 recovered (drug residual) [3]: about 100% | BA (relative bioavailability) vs SC (30 μg/body) (in vivo [4]; mice CSF, subcutaneous injection 30 μg (reference)): 100% | AUC(0-t) (in vivo [4]; [6]): 5.01 ng·h/mL | Cmax (in vivo [4]; [6]): 0.0149 ± 0.0107 µg/mL | Tmax (in vivo [4]; [6]): 15 min
